{"source": "patent US6579859B1", "about": "(priority 2002, dated 2003)", "type_in_all_cases": "cell-based", "key": {"Acanthamoeba (Cyst)": {"test_system": "Acanthamoeba (Cyst)", "test": "Acanthamoeba cyst toxicity test (minimal lethal concentration)", "conditions": "24 hours exposure at 30° C.; no trophozoites after 6 days; replicate tests", "procedure": "E. coli (ATCC#25922) were grown in Difaco Bacto nutrient agar and killed via UV light for use as nutrient for the Acanthamoeba cysts. The killed E. coli were placed on a non-nutrient agar plate. 1-2 drops of washed Acanthamoeba (from Tennessee Technological University) from a 2-3 day old plate were placed on the plate and incubated for 2-3 days at 30° C. A biofilm was prepared by placing approximately 9 milliliters of the active E. coli culture in sterile coplin jars containing 4 cover slips and incubating over night. The cover slips were rinsed in Osterhout-tris buffer and placed on 2-3 day old Acanthamoeba trophozoite plates and incubated for 7 days. In 7 days, the trophozoites will exhaust the E. coli nutrients and form cysts. The cover slips were soaked in approximately 9 milliliters of Osterhout-tris buffer and the cover slips placed in coplin jars. 50 ppm dilutions of the biocides to be tested were added to the coplin jars containing the cover slips with cysts and the coplin jars were incubated at 30° C. for 24 hours.\nAfter 24 hours, the test solutions were removed and the cover slips soaked in Osterhout-tris buffer for 30 minutes. The cover slips were placed on non-nutrient agar plates with live E. coli. The plates were observed using an inverted microscope every day for 6 days to see if trophozoites were present. If trophozoites appeared, the test was positive. […]"}, "Acanthamoeba Trophozoite": {"test_system": "Acanthamoeba Trophozoite", "test": "Acanthamoeba trophozoite toxicity test (minimal lethal concentration)", "conditions": "24 hours at 30°; all organisms dead in all replicate wells; replicate tests", "procedure": "E. coli (ATCC #25922) grown in Difco Bacto nutrient agar and killed via UV light were used as nutrient for the Acanthamoeba. The killed E. coli were placed on a non-nutrient agar plate. 1-2 drops of washed Acanthamoeba Trophozoite (from Tennessee Technological University) were placed on the plate and incubated for 2-3 days at 30° C. An inoculum was prepared by placing about 2 ml of Osterhout-tris buffer onto the 2-3 day old plates. A sterile loop was used to dislodge the Trophozoites from the agar surface. The liquid was transferred to a sterile tube and diluted 1:10. 10 micro liters were placed on a slide and counted to confirm about 90 Acanthamoeba per 10 micro liters for the test. This solution was placed in a standard 96 well test plate with successive 50% dilutions per row. A 400 ppm solution of toxicants in Osterhout-tris buffer was prepared. Toxicants were added to 3 adjacent wells for testing. To avoid cross contamination, a well was skipped between each 3 replicate wells in every row and every other row skipped on the plate. The plate was incubated at 30° for 24 hours. An inverted microscope was used to observe the organisms in the wells. Cytoplasm will move in live amoeba and/or the contractile vacuoles will remain active. All organisms had to be dead in a well to have a negative reading. […]"}, "[1]": {"test_system": "Tetrahymena (Trophozoite)", "test": "Tetrahymena toxicity test (minimal lethal concentration)", "conditions": "lowest concentration at which all Tetrahymena were dead in all replicate wells; replicate tests", "procedure": "Tetrahymena cells from a commercial source were grown in PCB broth in a tissue culture flask. The cells were removed from the broth via centrifuge and suspended in Osterhout-tris buffer at a concentration of no greater than 60 cells per 10 micro liters. A standard 96 well test plate comprising successive 50% dilutions of this cellular solution per row was prepared. Chemicals to be tested were added to 3 adjacent wells. Organism viability was tested via observation through an inverted microscope at time zero and every 24 hours thereafter. Tetrahymena were judged viable if they were motile or had active contractile vacuoles. All organisms in a well had to be dead to have a negative reading. A positive reading indicated all or some viable orgasms in a well. The minimal lethal concentration (MLC) of the test materials to Tetrahymena was the lowest toxicant concentration in which all Tetrahymena were dead in all replicate wells."}}, "note": "Where “and” joins values, the source holds several entries; their conditions need not be identical. Equal entries are not always repeated.", "data": [{"compound": "CCCCCCCCCCCCCC[P+](CCCC)(CCCC)CCCC.[Cl-]", "note": "[TBTDPC, Tri-n-butyl-tetradecylphosphonium chloride]", "values": [{"measurement": "Minimal Lethal Concentration, Acanthamoeba (Cyst)", "setting": "Acanthamoeba (Cyst)", "value": "25 μg/ml (4×) and 40 μg/ml"}, {"measurement": "Minimal Lethal Concentration, Acanthanoeba (Trophozoite)", "setting": "Acanthamoeba Trophozoite", "value": 2.5, "unit": "µg/mL"}, {"measurement": "Minimal Lethal Concentration, Tetrahymena (Trophozoite)", "setting": "[1]", "value": 2.5, "unit": "µg/mL"}]}, {"compound": "OC[P+](CO)(CO)CO.[Cl-]", "note": "[THPS, Tetra kis hydroxymethyl phosphonium chloride, reference compound]", "values": [{"measurement": "Minimal Lethal Concentration, Acanthamoeba (Cyst)", "setting": "Acanthamoeba (Cyst)", "value": ">50", "unit": "µg/mL"}, {"measurement": "Minimal Lethal Concentration, Acanthanoeba (Trophozoite)", "setting": "Acanthamoeba Trophozoite", "value": 56, "unit": "µg/mL"}, {"measurement": "Minimal Lethal Concentration, Tetrahymena (Trophozoite)", "setting": "[1]", "value": 28, "unit": "µg/mL"}]}]}
